This test concerns the target T1, human PAH with the R408W mutation (Homo sapiens, UniProt P00439, R408W).
T1 construct: expressed in transfected cells
T1 sequence (P00439 1-452 R408W): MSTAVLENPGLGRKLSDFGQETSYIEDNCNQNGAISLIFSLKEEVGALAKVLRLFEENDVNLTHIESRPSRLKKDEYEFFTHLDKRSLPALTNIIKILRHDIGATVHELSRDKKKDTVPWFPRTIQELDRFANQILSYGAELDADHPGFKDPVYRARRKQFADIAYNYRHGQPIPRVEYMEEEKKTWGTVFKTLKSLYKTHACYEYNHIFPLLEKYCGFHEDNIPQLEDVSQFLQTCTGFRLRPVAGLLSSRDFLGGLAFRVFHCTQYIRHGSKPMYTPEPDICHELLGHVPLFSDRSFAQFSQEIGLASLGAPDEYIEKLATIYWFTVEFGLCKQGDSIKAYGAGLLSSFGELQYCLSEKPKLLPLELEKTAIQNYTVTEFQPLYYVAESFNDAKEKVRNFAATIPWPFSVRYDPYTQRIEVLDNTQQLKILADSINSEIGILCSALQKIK
As to the kind of experiment: Cell Based Phenylalanine Flux Assay.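 Note: after compound treatment, cells received sepiapterin plus isotope-labelled Phenylalanine for 4 hours, then labelled Tyrosine in the medium was quantified, 10-point 2-fold dilution series run in duplicate.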 As to conditions: A375 cells expressing human R408W PAH; 24 hrs compound incubation; 13C-Tyrosine by LC-MS; average where tested multiple times; read-out: AC50.

Each structure is given as a SMILES string. Where only a bound is given, the exact number is not on record here.

As usually defined, the AC50 is the concentration at which the activity in the assay is half-maximal.

As for `CN(C)Cc1ccc2c(C(=O)N3CCc4[nH]cnc4[C@@H]3c3cc4c(C(F)(F)F)cccn4n3)cnn2c1` [Example 1547, (R)-(6-((dimethylamino)methyl)pyrazolo[1,5-a]pyridin-3-yl)(4-(4-(trifluoromethyl)pyrazolo[1,5-a]pyridin-2-yl)-6,7-dihydro-1H-imidazo[4,5-c]pyridin-5(4H)-yl)methanone], the AC50 is more than 5000 nM.

Consider `COCc1ccc2c(C(=O)N3CCc4[nH]cnc4[C@H]3c3cc4c(C(F)(F)F)cccn4n3)cnn2c1` [Example 1548, (S)-(6-(methoxymethyl)pyrazolo[1,5-a]pyridin-3-yl)(4-(4-(trifluoromethyl)pyrazolo[1,5-a]pyridin-2-yl)-6,7-dihydro-1H-imidazo[4,5-c]pyridin-5(4H)-yl)methanone], for which the AC50 lay in the range of 500 to 1000 nM.

For `COCc1ccc2c(C(=O)N3CCc4[nH]cnc4[C@@H]3c3cc4c(C(F)(F)F)cccn4n3)cnn2c1` [Example 1549, (R)-(6-(methoxymethyl)pyrazolo[1,5-a]pyridin-3-yl)(4-(4-(trifluoromethyl)pyrazolo[1,5-a]pyridin-2-yl)-6,7-dihydro-1H-imidazo[4,5-c]pyridin-5(4H)-yl)methanone], the AC50 fell in the range of 1000 to 5000 nM.

With `O=C(c1cnn2cc(-c3ccccn3)ccc12)N1CCc2[nH]cnc2[C@@H]1c1cc2c(C(F)(F)F)cccn2n1` [Example 1551, (R)-(6-(pyridin-2-yl)pyrazolo[1,5-a]pyridin-3-yl)(4-(4-(trifluoromethyl)pyrazolo[1,5-a]pyridin-2-yl)-6,7-dihydro-1H-imidazo[4,5-c]pyridin-5(4H)-yl)methanone], the concentration at half-maximal activity (AC50) lay in the range of 1000 to 5000 nM.

Take `CC(C)c1nnc(C(=O)N2CCc3[nH]cnc3[C@H]2c2cc3cccc(F)n3n2)o1` [Example 1555, (S)-(4-(7-fluoropyrazolo[1,5-a]pyridin-2-yl)-6,7-dihydro-1H-imidazo[4,5-c]pyridin-5(4H)-yl)(5-isopropyl-1,3,4-oxadiazol-2-yl)methanone]: the AC50 was in the range of 1000 to 5000 nM.

As for `Cc1cccn2nc([C@@H]3c4nc[nH]c4CCN3C(=O)c3nnc(C4CCC4)o3)cc12` [Example 1556, (S)-(5-cyclobutyl-1,3,4-oxadiazol-2-yl)(4-(4-methylpyrazolo[1,5-a]pyridin-2-yl)-6,7-dihydro-1H-imidazo[4,5-c]pyridin-5(4H)-yl)methanone], the AC50 was less than 500 nM.

`Cc1cccn2nc([C@H]3c4nc[nH]c4CCN3C(=O)c3nnc(C4CCC4)o3)cc12` [Example 1557, (R)-(5-cyclobutyl-1,3,4-oxadiazol-2-yl)(4-(4-methylpyrazolo[1,5-a]pyridin-2-yl)-6,7-dihydro-1H-imidazo[4,5-c]pyridin-5(4H)-yl)methanone]: the AC50 was 1000 to 5000 nM.

`O=C(c1nnc(C2CCC2)o1)N1CCc2[nH]cnc2[C@H]1c1cc2c(F)cccn2n1` [Example 1559, (S)-(5-cyclobutyl-1,3,4-oxadiazol-2-yl)(4-(4-fluoropyrazolo[1,5-a]pyridin-2-yl)-6,7-dihydro-1H-imidazo[4,5-c]pyridin-5(4H)-yl)methanone]: the AC50 was less than 500 nM.

For `O=C(c1nnc(C2CCC2)o1)N1CCc2[nH]cnc2[C@@H]1c1cc2cccc(Cl)n2n1` [Example 1560, (R)-(4-(7-chloropyrazolo[1,5-a]pyridin-2-yl)-6,7-dihydro-1H-imidazo[4,5-c]pyridin-5(4H)-yl)(5-cyclobutyl-1,3,4-oxadiazol-2-yl)methanone], the AC50 was more than 5000 nM.

On to `O=C(c1nnc(C2CCC2)o1)N1CCc2[nH]cnc2[C@H]1c1cc2cccc(Cl)n2n1` [Example 1561, (S)-(4-(7-chloropyrazolo[1,5-a]pyridin-2-yl)-6,7-dihydro-1H-imidazo[4,5-c]pyridin-5(4H)-yl)(5-cyclobutyl-1,3,4-oxadiazol-2-yl)methanone], for which the AC50 was less than 500 nM.

As to `Cc1cccc2cc([C@@H]3c4nc[nH]c4CCN3C(=O)c3nnc(C4CCC4)o3)nn12` [Example 1562, (S)-(5-cyclobutyl-1,3,4-oxadiazol-2-yl)(4-(7-methylpyrazolo[1,5-a]pyridin-2-yl)-6,7-dihydro-1H-imidazo[4,5-c]pyridin-5(4H)-yl)methanone], the AC50 is 500 to 1000 nM.

With `Cc1cccc2cc([C@H]3c4nc[nH]c4CCN3C(=O)c3nnc(C4CCC4)o3)nn12` [Example 1563, (R)-(5-cyclobutyl-1,3,4-oxadiazol-2-yl)(4-(7-methylpyrazolo[1,5-a]pyridin-2-yl)-6,7-dihydro-1H-imidazo[4,5-c]pyridin-5(4H)-yl)methanone], the AC50 lay within 1000 to 5000 nM.

For the molecule `Cc1cc(-c2nnc(C(=O)N3CCc4[nH]cnc4[C@@H]3c3cc4cccc(F)n4n3)o2)nn1C` [Example 1564, (R)-(5-(1,5-dimethyl-1H-pyrazol-3-yl)-1,3,4-oxadiazol-2-yl)(4-(7-fluoropyrazolo[1,5-a]pyridin-2-yl)-6,7-dihydro-1H-imidazo[4,5-c]pyridin-5(4H)-yl)methanone], the AC50 was more than 5000 nM.

In the case of `Cc1nn(C)cc1-c1nnc(C(=O)N2CCc3[nH]cnc3[C@H]2c2cc3cccc(F)n3n2)o1` [Example 1566, (S)-(5-(1,3-dimethyl-1H-pyrazol-4-yl)-1,3,4-oxadiazol-2-yl)(4-(7-fluoropyrazolo[1,5-a]pyridin-2-yl)-6,7-dihydro-1H-imidazo[4,5-c]pyridin-5(4H)-yl)methanone], the AC50 fell in the range of 500 to 1000 nM.

Regarding `Cc1nn(C)cc1-c1nnc(C(=O)N2CCc3[nH]cnc3[C@@H]2c2cc3cccc(F)n3n2)o1` [Example 1567, (R)-(5-(1,3-dimethyl-1H-pyrazol-4-yl)-1,3,4-oxadiazol-2-yl)(4-(7-fluoropyrazolo[1,5-a]pyridin-2-yl)-6,7-dihydro-1H-imidazo[4,5-c]pyridin-5(4H)-yl)methanone], the AC50 lay in the range of 1000 to 5000 nM.

On to `Cc1cnn(C)c1-c1nnc(C(=O)N2CCc3[nH]cnc3[C@@H]2c2cc3c(C(F)F)cccn3n2)o1` [Example 1569, (R)-(4-(4-(difluoromethyl)pyrazolo[1,5-a]pyridin-2-yl)-6,7-dihydro-1H-imidazo[4,5-c]pyridin-5(4H)-yl)(5-(1,4-dimethyl-1H-pyrazol-5-yl)-1,3,4-oxadiazol-2-yl)methanone], for which the AC50 is more than 5000 nM.

Turning to `O=C(c1nnc(-c2cnn(C(F)(F)F)c2)o1)N1CCc2[nH]cnc2[C@H]1c1cc2c(C(F)F)cccn2n1` [Example 1570, (S)-(4-(4-(difluoromethyl)pyrazolo[1,5-a]pyridin-2-yl)-6,7-dihydro-1H-imidazo[4,5-c]pyridin-5(4H)-yl)(5-(1-(trifluoromethyl)-1H-pyrazol-4-yl)-1,3,4-oxadiazol-2-yl)methanone], the AC50 is less than 500 nM.

As for `O=C(c1nnc(-c2cnn(C(F)(F)F)c2)o1)N1CCc2[nH]cnc2[C@@H]1c1cc2c(C(F)F)cccn2n1` [Example 1571, (R)-(4-(4-(difluoromethyl)pyrazolo[1,5-a]pyridin-2-yl)-6,7-dihydro-1H-imidazo[4,5-c]pyridin-5(4H)-yl)(5-(1-(trifluoromethyl)-1H-pyrazol-4-yl)-1,3,4-oxadiazol-2-yl)methanone], the AC50 was 1000 to 5000 nM.

Consider `O=C(c1nnc(C2CCC2)o1)N1CCc2[nH]cnc2[C@@H]1c1cc2cccc(C(F)F)n2n1` [Example 1572, (R)-(5-cyclobutyl-1,3,4-oxadiazol-2-yl)(4-(7-(difluoromethyl)pyrazolo[1,5-a]pyridin-2-yl)-6,7-dihydro-1H-imidazo[4,5-c]pyridin-5(4H)-yl)methanone], for which the AC50 lay within 1000 to 5000 nM.

`O=C(c1nnc(C2CCC2)o1)N1CCc2[nH]cnc2[C@H]1c1cc2cccc(C(F)F)n2n1` [Example 1573, (S)-(5-cyclobutyl-1,3,4-oxadiazol-2-yl)(4-(7-(difluoromethyl)pyrazolo[1,5-a]pyridin-2-yl)-6,7-dihydro-1H-imidazo[4,5-c]pyridin-5(4H)-yl)methanone]: the AC50 lay within 500 to 1000 nM.

`O=C(c1nnc(C2CCC2)o1)N1CCc2[nH]cnc2[C@@H]1c1cc2cccc(F)n2n1` [Example 1574, (R)-(5-cyclobutyl-1,3,4-oxadiazol-2-yl)(4-(7-fluoropyrazolo[1,5-a]pyridin-2-yl)-6,7-dihydro-1H-imidazo[4,5-c]pyridin-5(4H)-yl)methanone]: the AC50 was 1000 to 5000 nM.

On to `O=C(c1nnc(C2CCC2)o1)N1CCc2[nH]cnc2[C@H]1c1cc2cccc(F)n2n1` [Example 1575, (S)-(5-cyclobutyl-1,3,4-oxadiazol-2-yl)(4-(7-fluoropyrazolo[1,5-a]pyridin-2-yl)-6,7-dihydro-1H-imidazo[4,5-c]pyridin-5(4H)-yl)methanone], for which the AC50 is less than 500 nM.

With `COc1ccc(-c2nnc(C(=O)N3CCc4[nH]cnc4[C@H]3c3cc4cccc(C(F)F)n4n3)o2)nc1` [Example 1578, (S)-(4-(7-(difluoromethyl)pyrazolo[1,5-a]pyridin-2-yl)-6,7-dihydro-1H-imidazo[4,5-c]pyridin-5(4H)-yl)(5-(5-methoxypyridin-2-yl)-1,3,4-oxadiazol-2-yl)methanone], the AC50 was 500 to 1000 nM.

With `COc1ccc(-c2nnc(C(=O)N3CCc4[nH]cnc4[C@@H]3c3cc4cccc(C(F)F)n4n3)o2)nc1` [Example 1579, (R)-(4-(7-(difluoromethyl)pyrazolo[1,5-a]pyridin-2-yl)-6,7-dihydro-1H-imidazo[4,5-c]pyridin-5(4H)-yl)(5-(5-methoxypyridin-2-yl)-1,3,4-oxadiazol-2-yl)methanone], the AC50 was more than 5000 nM.
